Laboratory results as given in patent US8017612B2, “Piperazine compound and use thereof as a HCV polymerase inhibitor” (priority 2006, dated 2011).

Key:
[1] = biological target: T1, HCV polymerase (NS5B) type 1b (Hepatitis C virus genotype 1b, UniProt P26663); test: Assay of enzyme (HCV polymerase) inhibitory activity, type 1b enzyme; assay type: biochemical, HCV BK strain (type 1b)
T1 construct: a region encoding NS5B (J Virol 1991 March, 65(3), 1105-13, 544 amino acids after deletion of 47 amino acids on the C-terminal); 6xHis (C); made in house; host or cells: Escherichia coli
Outline: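 Rxn: NS5B 1b (BK, ΔC47, His6) 0.5 μg/ml; substrate RNA 5 μg/ml; ATP/GTP/CTP 50 μM, UTP 2 μM + [5,6-3H]UTP; 20 mM Tris pH 7.5, 5 mM MgCl2, 50 mM NaCl, 1 mM EDTA/DTT. 25 °C, 60 min. Stop with TCA/pyrophosphate, filter, scintillation count; IC50 vs. untreated.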

[2] = biological target: T2, HCV polymerase (NS5B) type 1a (Hepatitis C virus genotype 1a, UniProt P26664); test: Assay of enzyme (HCV polymerase) inhibitory activity, type 1a enzyme; assay type: biochemical, HCV type 1a (cloned from the blood of patients)
T2 construct: made in house; host or cells: Escherichia coli (by the 'similar method' of the 1b enzyme)
Outline: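 NS5B Δ47 C-term His6 (type 1a, 1.5 μg/ml); substrate RNA 5 μg/ml; ATP/GTP/CTP 50 μM, UTP 2 μM + [5,6-3H]UTP; Tris pH 7.5, MgCl2 5 mM; 25° C, 60 min. TCA/pyrophosphate stop, GF/B filter, scintillation. IC50 vs no-compound control.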

[3] = HCV polymerase inhibitory activity IC50, 1b, type 1b enzyme
[4] = HCV polymerase inhibitory activity IC50, 1a, type 1a enzyme
[5] = HCV polymerase inhibitory activity (IC50), 1b, type 1b enzyme 0.5 μg/ml, 25° C., 60 min
[6] = HCV polymerase inhibitory activity (IC50), 1a, type 1a enzyme 1.5 μg/ml, 25° C., 60 min

Row | Structure (SMILES) | IC50 [1, 3] | IC50 [2, 4] | IC50 [1, 5] | IC50 [2, 6]
1 | O=C(NCc1ccc(OCF)cc1)[C@H]1CN(c2nc3ncncc3s2)CCN1S(=O)(=O)c1ccc(OC(F)(F)F)cc1 [Example 967, (R)-4-thiazolo[4,5-d]pyrimidin-2-yl-1-(4-trifluoromethoxy-benzenesulfonyl)-piperazine-2-carboxylic acid 4-fluoromethoxy-benzylamide] | < 100 nM | < 100 nM |  | 
2 | COc1nncc2sc(N3CCN(S(=O)(=O)c4ccc(OC(F)(F)F)cc4)[C@@H](C(=O)NCc4ccc(OC(F)(F)F)cc4)C3)nc12 [Example 1009, (R)-4-(4-methoxy-thiazolo[4,5-d]pyridazin-2-yl)-1-(4-trifluoromethoxy-benzenesulfonyl)-piperazine-2-carboxylic acid 4-trifluoromethoxy-benzylamide] | < 100 nM | < 100 nM |  | 
3 | CN(C)c1ccc(CNC(=O)C2CN(C(=O)OC(C)(C)C)CCN2S(=O)(=O)c2ccc(I)cc2)cc1 (stereo not shown) [Example 82, 3-(4-dimethylamino-benzylcarbamoyl)-4-(4-iodo-benzenesulfonyl)-piperazine-1-carboxylic acid tert-butyl ester] |  |  | > 1000 nM | > 1000 nM
4 | CC(C)(C)c1ccc(CNC(=O)[C@H]2CN(c3nc4nn[nH]c(=O)c4s3)CCN2S(=O)(=O)c2ccc(OC(F)(F)F)cc2)cc1 [Example 618, (R)-4-(4-oxo-3,4-dihydro-thiazolo[4,5-d][1,2,3]triazin-6-yl)-1-(4-trifluoromethoxy-benzenesulfonyl)-piperazine-2-carboxylic acid 4-tert-butyl-benzylamide] |  |  | < 100 nM | < 100 nM
5 | CC(=O)c1ccc(S(=O)(=O)N2CCN(C(C)=O)CC2C(=O)NCc2ccc(C(F)(F)F)cc2)cc1 (stereo not shown) [Example 31, 4-acetyl-1-(4-acetyl-benzenesulfonyl)-piperazine-2-carboxylic acid 4-trifluoromethyl-benzylamide] |  |  | > 1000 nM | > 1000 nM
6 | O=C(NCc1ccc(SC(F)(F)F)cc1)[C@H]1CN(c2cnc3cncnc3n2)CCN1S(=O)(=O)c1ccc(OC(F)(F)F)cc1 [Example 772, (R)-4-pteridin-7-yl-1-(4-trifluoromethoxy-benzenesulfonyl)-piperazine-2-carboxylic acid 4-trifluoromethylsulfanyl-benzylamide] | < 100 nM | < 100 nM |  | 
7 | CC(=O)N1CCN(S(=O)(=O)c2ccc(OC(F)(F)F)cc2)[C@@H](C(=O)NCc2ccc(C(C)(C)C#N)cc2)C1 [Example 641, (R)-4-acetyl-1-(4-trifluoromethoxy-benzenesulfonyl)-piperazine-2-carboxylic acid 4-(cyano-dimethyl-methyl)-benzylamide] |  |  | 100 to 1000 nM | 100 to 1000 nM
8 | CC(C)c1ccc(CNC(=O)[C@H]2CN(C(=O)Cc3ccccc3)CCN2S(=O)(=O)c2ccc(C(F)(F)F)cc2)cc1 [Example 172, (R)-4-phenylacetyl-1-(4-trifluoromethyl-benzenesulfonyl)-piperazine-2-carboxylic acid 4-isopropyl-benzylamide] |  |  | 100 to 1000 nM | > 1000 nM
9 | Cc1nc(N2CCN(S(=O)(=O)c3ccc(OC(F)(F)F)cc3)[C@@H](C(=O)NCCc3ccccc3)C2)sc1C(=O)O [Example 418, 4-methyl-2-[(R)-3-phenethylcarbamoyl-4-(4-trifluoromethoxy-benzenesulfonyl)-piperazin-1-yl]-thiazole-5-carboxylic acid] |  |  | > 1000 nM | > 1000 nM
10 | O=C(NCc1ccc(OC(F)F)cc1F)[C@H]1CN(c2nc3nc(C(F)(F)F)ncc3s2)CCN1S(=O)(=O)c1ccc(C(F)(F)F)cc1 [Example 1042, (R)-1-(4-trifluoromethyl-benzenesulfonyl)-4-(5-trifluoromethyl-thiazolo[4,5-d]pyrimidin-2-yl)-piperazine-2-carboxylic acid 4-difluoromethoxy-2-fluoro-benzylamide] | < 100 nM | < 100 nM |  | 
11 | CCCc1ccc(CNC(=O)[C@H]2CN(C(=O)Nc3nncs3)CCN2S(=O)(=O)c2ccc(OC(F)(F)F)cc2)cc1 [Example 437, (R)-4-(4-trifluoromethoxy-benzenesulfonyl)-piperazine-1,3-dicarboxylic acid 3-(4-propyl-benzylamide) 1-[1,3,4]thiadiazol-2-ylamide] |  |  | < 100 nM | < 100 nM
12 | CCC(F)(F)c1ccc(CNC(=O)[C@H]2CN(C(=O)Nc3ccnc(Cl)c3)CCN2S(=O)(=O)c2ccc(OC(F)(F)F)cc2)cc1 [Example 517, (R)-4-(4-trifluoromethoxy-benzenesulfonyl)-piperazine-1,3-dicarboxylic acid 1-[(2-chloro-pyridin-4-yl)-amide] 3-[4-(1,1-difluoro-propyl)-benzylamide]] |  |  | < 100 nM | < 100 nM
13 | CC(C)c1ccc(CNC(=O)[C@H]2CN(c3nc(Br)n[nH]3)CCN2S(=O)(=O)c2ccc(C(F)(F)F)cc2)cc1 [Example 372, (R)-4-(5-bromo-2H-[1,2,4]triazol-3-yl)-1-(4-trifluoromethyl-benzenesulfonyl)-piperazine-2-carboxylic acid 4-isopropyl-benzylamide] |  |  | < 100 nM | 100 to 1000 nM
14 | CCCc1ccc(CNC(=O)[C@H]2CN(C(=O)Nc3ccncc3)CCN2S(=O)(=O)c2ccc(OC(F)(F)F)cc2)cc1 [Example 436, (R)-4-(4-trifluoromethoxy-benzenesulfonyl)-piperazine-1,3-dicarboxylic acid 3-(4-propyl-benzylamide) 1-pyridin-4-ylamide] |  |  | < 100 nM | < 100 nM
15 | CC(=O)N1CCN(S(=O)(=O)c2ccc(C(C)C)cc2)C(C(=O)NCc2ccccc2N(C)C)C1 (stereo not shown) [Example 129, 4-acetyl-1-(4-isopropyl-benzenesulfonyl)-piperazine-2-carboxylic acid 2-dimethylamino-benzylamide] |  |  | > 1000 nM | > 1000 nM
16 | CC(=O)N1CCN(S(=O)(=O)c2ccc(CCC(=O)O)s2)[C@@H](C(=O)NCc2ccc(C(C)C)cc2)C1 [Example 283, 3-{5-[(R)-4-acetyl-2-(4-isopropyl-benzylcarbamoyl)-piperazine-1-sulfonyl]-thiophen-2-yl}-propionic acid] |  |  | > 1000 nM | > 1000 nM
17 | Nc1nc(C2CC2)nc2nc(N3CCN(S(=O)(=O)c4ccc(OC(F)(F)F)cc4)[C@@H](C(=O)NCc4ccc(OC(F)(F)F)cc4)C3)sc12 [Example 1090, (R)-4-(7-amino-5-cyclopropyl-thiazolo[4,5-d]pyrimidin-2-yl)-1-(4-trifluoromethoxy-benzenesulfonyl)-piperazine-2-carboxylic acid 4-trifluoromethoxy-benzylamide] | < 100 nM | < 100 nM |  | 
18 | CC(C)c1ccc(CNC(=O)[C@H]2CN(C(=O)Nc3ccc(C(=O)O)cc3)CCN2S(=O)(=O)c2ccc(C(F)(F)F)cc2)cc1 [Example 285, 4-{[(R)-3-(4-isopropyl-benzylcarbamoyl)-4-(4-trifluoromethyl-benzenesulfonyl)-piperazine-1-carbonyl]-amino}-benzoic acid] |  |  | < 100 nM | 100 to 1000 nM
19 | COC(=O)CCCCC(=O)N1CCN(S(=O)(=O)c2ccc(C(F)(F)F)cc2)[C@@H](C(=O)NCc2ccc(C(C)C)cc2)C1 [Example 212, 6-[(R)-3-(4-isopropyl-benzylcarbamoyl)-4-(4-trifluoromethyl-benzenesulfonyl)-piperazin-1-yl]-6-oxo-hexanoic acid methyl ester] |  |  | < 100 nM | 100 to 1000 nM
20 | Cc1nc(N2CCN(S(=O)(=O)c3ccc(C(F)(F)F)cc3)[C@@H](C(=O)NCc3ccc(C(C)C)cc3)C2)ncc1C(=O)OCc1ccccc1 [Example 336, 2-[(R)-3-(4-isopropyl-benzylcarbamoyl)-4-(4-trifluoromethyl-benzenesulfonyl)-piperazin-1-yl]-4-methyl-pyrimidine-5-carboxylic acid benzyl ester] |  |  | > 1000 nM | > 1000 nM
21 | CC(C)c1ccc(S(=O)(=O)N2CCN(c3nc4c(s3)Cc3ccccc3-4)CC2C(=O)NCc2ccc(C(F)(F)F)cc2)cc1 (stereo not shown) [Example 155, 4-(8H-indeno[1,2-d]thiazol-2-yl)-1-(4-isopropyl-benzenesulfonyl)-piperazine-2-carboxylic acid 4-trifluoromethyl-benzylamide] |  |  | > 1000 nM | > 1000 nM
22 | CC(C)c1ccc(CNC(=O)[C@H]2CN(c3ncc[nH]3)CCN2S(=O)(=O)c2ccc(C(F)(F)F)cc2)cc1 [Example 353, (R)-4-(1H-imidazol-2-yl)-1-(4-trifluoromethyl-benzenesulfonyl)-piperazine-2-carboxylic acid 4-isopropyl-benzylamide] |  |  | 100 to 1000 nM | 100 to 1000 nM
23 | CCCc1ccc(CNC(=O)[C@H]2CN(c3nc(C)c(C(=O)O)s3)CCN2S(=O)(=O)c2ccc(OC(F)(F)F)cc2)cn1 [Example 388, 4-methyl-2-[(R)-3-[(6-propyl-pyridin-3-ylmethyl)-carbamoyl]-4-(4-trifluoromethoxy-benzenesulfonyl)-piperazin-1-yl]-thiazole-5-carboxylic acid] |  |  | < 100 nM | 100 to 1000 nM
